Data from ChEMBL document CHEMBL5465560, “Selectivity Literature for EUbOPEN Chemogenomic Library” (2024).
Blank lines part the entries; values can stand above or below the molecule they belong to.

Columns and labels:
[1] = target: Dual specificity mitogen-activated protein kinase kinase 1 (Homo sapiens, UniProt Q02750); test: Selectivity interaction (Kinase panel (DSF assay)) EUB0001559a MAP2K1
[2] = target: STE20/SPS1-related proline-alanine-rich protein kinase (Homo sapiens) (UniProt Q9UEW8); test: Selectivity interaction (KinomeScan (DiscoverX)) EUB0000595a STK39; settings: at 10 µM
[3] = target: T1, Ephrin type-B receptor 3 (Homo sapiens) (UniProt P54753); test: Selectivity interaction (Upstate Kinase Profiler service (Millipore)) EUB0000056c EPHB3; settings: at 1 µM
T1 sequence (whole entry): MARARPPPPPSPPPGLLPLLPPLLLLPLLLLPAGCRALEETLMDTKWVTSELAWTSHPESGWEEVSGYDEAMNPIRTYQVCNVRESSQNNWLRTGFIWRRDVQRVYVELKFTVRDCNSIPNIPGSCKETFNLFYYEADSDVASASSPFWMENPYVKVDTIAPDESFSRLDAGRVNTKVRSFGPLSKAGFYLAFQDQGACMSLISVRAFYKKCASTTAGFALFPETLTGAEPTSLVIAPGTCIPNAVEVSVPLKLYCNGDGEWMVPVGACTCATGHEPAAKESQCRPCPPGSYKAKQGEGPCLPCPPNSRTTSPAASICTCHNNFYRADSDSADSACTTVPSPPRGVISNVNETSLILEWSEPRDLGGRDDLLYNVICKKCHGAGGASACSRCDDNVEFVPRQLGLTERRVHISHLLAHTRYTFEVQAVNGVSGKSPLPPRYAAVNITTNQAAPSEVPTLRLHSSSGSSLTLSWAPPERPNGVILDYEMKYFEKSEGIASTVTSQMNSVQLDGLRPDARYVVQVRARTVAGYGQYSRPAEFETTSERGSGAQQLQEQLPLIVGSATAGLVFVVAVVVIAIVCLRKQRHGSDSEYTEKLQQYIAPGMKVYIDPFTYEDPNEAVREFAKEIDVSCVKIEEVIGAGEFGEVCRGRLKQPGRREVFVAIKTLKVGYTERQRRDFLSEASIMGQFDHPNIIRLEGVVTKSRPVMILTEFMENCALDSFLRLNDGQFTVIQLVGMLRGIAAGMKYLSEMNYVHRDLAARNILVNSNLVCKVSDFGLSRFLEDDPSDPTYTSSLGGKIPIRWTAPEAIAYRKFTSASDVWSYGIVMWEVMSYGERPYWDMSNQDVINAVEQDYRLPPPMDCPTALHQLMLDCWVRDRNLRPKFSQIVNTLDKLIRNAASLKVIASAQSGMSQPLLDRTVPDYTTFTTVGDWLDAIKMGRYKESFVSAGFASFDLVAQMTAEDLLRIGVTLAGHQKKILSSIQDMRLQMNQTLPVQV

[4] = target: T2, Serine/threonine-protein kinase D3 (Homo sapiens) (UniProt O94806); settings: at 10 µM
T2 sequence (whole entry): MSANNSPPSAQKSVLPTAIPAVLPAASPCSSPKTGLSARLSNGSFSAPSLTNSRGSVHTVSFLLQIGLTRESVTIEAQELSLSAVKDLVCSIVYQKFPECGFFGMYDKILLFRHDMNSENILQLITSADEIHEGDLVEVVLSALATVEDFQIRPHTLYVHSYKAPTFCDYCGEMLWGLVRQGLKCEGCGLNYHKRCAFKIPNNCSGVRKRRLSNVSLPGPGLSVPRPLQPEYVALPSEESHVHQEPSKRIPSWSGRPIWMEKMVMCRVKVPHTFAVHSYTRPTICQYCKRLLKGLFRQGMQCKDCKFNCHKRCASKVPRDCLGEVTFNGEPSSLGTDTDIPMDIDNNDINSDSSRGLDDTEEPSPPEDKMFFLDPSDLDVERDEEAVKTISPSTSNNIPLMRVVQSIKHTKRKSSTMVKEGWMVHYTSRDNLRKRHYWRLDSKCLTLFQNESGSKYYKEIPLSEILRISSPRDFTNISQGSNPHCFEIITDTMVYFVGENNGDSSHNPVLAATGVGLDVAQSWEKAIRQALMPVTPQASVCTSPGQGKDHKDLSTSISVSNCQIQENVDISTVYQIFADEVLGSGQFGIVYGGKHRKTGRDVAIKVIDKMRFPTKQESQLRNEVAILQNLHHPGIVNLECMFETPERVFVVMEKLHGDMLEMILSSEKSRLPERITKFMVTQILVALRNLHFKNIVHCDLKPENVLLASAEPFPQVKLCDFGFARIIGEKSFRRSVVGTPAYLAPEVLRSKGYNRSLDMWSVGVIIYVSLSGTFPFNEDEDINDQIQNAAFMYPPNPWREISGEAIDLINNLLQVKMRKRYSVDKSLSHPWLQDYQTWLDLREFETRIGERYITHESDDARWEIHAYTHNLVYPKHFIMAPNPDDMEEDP

[5] = target: Ribosomal protein S6 kinase alpha-1 (Homo sapiens, UniProt Q15418); test: Selectivity interaction (ActivX KiNativ screen (kinase selectivity in THP-1 cell lysates)) EUB0000639a RPS6KA1; assay type: subcellular; settings: lysate, at 0.01 µM
[6] = target: Serine/threonine-protein kinase 33 (Homo sapiens) (UniProt Q9BYT3); test: Selectivity interaction (Kinase panel (Invitrogen)) EUB0000639a STK33; settings: at 200 nM
[7] = target: Serine/threonine-protein kinase NLK (Homo sapiens, UniProt Q9UBE8); test: Selectivity interaction (Competition-binding assay (DiscoverX)) EUB0000229b NLK
[8] = target: Citron Rho-interacting kinase (Homo sapiens) (UniProt O14578); test: Selectivity interaction (KinomeScan (DiscoverX)) EUB0000229b CIT; settings: at 10 µM
Ephrin type-A receptor 4 = Ephrin type-A receptor 4 (Homo sapiens, UniProt P54764); test: Selectivity interaction (KinomeScan (DiscoverX)) EUB0001049a EPHA4; settings: at 1 µM
[9] = target: Sodium-dependent noradrenaline transporter (Homo sapiens, UniProt P23975); test: Selectivity interaction (Norepinephrine Transporter assay, human recombinant ) EUB0000877a SLC6A2
Sequence of Sodium-dependent noradrenaline transporter (P23975 whole entry): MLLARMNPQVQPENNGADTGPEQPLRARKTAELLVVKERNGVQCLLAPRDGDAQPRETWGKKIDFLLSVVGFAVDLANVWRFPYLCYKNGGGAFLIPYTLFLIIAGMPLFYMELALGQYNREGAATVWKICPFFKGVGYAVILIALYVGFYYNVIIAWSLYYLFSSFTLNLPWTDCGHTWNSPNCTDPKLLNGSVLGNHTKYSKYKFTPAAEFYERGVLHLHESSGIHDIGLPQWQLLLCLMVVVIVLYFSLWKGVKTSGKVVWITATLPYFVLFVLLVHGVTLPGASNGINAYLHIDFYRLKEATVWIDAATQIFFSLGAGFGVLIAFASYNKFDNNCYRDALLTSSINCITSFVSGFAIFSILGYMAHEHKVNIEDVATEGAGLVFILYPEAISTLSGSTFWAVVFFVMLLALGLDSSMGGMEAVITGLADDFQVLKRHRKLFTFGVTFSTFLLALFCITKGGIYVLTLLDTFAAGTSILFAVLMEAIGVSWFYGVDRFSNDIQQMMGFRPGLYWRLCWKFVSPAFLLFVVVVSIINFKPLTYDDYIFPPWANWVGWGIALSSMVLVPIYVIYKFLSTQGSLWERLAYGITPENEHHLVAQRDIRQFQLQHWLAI

Sequence of Dual specificity mitogen-activated protein kinase kinase 1 (Q02750 whole entry): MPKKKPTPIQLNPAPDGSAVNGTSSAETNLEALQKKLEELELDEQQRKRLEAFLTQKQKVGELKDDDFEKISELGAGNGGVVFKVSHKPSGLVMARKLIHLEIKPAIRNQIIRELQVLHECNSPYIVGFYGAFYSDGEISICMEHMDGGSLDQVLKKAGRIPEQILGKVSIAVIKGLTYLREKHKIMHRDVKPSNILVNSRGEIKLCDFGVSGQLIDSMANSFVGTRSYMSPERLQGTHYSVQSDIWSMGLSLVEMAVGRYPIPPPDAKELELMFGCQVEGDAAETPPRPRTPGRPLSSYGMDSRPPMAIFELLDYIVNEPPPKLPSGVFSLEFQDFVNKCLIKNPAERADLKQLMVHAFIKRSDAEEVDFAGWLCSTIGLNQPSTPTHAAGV
Sequence of Ribosomal protein S6 kinase alpha-1 (Q15418 whole entry): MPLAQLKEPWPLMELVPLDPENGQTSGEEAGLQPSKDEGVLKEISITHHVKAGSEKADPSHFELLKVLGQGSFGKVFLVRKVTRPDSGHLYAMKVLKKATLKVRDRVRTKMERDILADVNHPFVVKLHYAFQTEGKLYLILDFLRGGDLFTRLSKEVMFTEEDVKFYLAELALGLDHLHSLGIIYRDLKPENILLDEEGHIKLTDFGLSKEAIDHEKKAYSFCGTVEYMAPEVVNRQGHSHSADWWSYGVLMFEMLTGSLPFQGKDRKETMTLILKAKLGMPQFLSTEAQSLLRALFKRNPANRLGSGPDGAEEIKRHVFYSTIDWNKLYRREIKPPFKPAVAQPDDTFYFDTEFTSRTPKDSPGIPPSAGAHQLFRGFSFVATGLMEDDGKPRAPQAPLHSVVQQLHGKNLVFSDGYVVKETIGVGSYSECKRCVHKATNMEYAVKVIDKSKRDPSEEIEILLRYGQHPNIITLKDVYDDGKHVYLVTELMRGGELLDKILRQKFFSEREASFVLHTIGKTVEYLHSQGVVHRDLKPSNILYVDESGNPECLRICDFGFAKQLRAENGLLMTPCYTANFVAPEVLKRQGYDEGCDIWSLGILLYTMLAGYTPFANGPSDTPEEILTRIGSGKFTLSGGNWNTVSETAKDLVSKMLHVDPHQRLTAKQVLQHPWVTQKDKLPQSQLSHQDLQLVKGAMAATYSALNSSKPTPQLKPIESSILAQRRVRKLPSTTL
Sequence of Serine/threonine-protein kinase NLK (Q9UBE8 whole entry): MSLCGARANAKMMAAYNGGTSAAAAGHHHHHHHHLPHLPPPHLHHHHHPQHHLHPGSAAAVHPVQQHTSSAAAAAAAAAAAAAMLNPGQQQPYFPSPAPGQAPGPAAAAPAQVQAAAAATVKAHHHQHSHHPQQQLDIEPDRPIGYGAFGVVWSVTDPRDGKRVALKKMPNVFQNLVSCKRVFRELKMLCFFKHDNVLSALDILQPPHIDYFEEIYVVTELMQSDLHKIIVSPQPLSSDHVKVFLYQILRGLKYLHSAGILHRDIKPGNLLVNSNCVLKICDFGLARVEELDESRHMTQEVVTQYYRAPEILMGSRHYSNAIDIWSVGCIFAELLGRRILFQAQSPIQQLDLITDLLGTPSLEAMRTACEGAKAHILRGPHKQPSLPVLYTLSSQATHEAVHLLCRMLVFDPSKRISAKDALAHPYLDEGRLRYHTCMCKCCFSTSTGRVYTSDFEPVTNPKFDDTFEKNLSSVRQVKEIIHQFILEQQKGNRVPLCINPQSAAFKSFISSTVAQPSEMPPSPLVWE
Sequence of Serine/threonine-protein kinase 33 (Homo sapiens) (Q9BYT3 whole entry, looked up): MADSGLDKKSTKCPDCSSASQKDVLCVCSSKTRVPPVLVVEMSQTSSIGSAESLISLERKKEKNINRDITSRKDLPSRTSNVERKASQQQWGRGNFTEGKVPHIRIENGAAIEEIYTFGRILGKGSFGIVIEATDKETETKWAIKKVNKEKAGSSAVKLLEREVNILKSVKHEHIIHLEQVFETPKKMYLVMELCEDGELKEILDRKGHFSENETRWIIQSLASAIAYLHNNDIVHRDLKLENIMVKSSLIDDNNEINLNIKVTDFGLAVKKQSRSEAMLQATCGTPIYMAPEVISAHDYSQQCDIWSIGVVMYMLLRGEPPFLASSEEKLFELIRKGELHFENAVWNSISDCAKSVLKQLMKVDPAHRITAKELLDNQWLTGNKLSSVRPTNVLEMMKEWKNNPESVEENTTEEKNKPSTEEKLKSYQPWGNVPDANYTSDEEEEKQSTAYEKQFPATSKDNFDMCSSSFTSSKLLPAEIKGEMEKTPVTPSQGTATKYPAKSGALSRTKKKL
Sequence of Ephrin type-A receptor 4 (P54764 whole entry): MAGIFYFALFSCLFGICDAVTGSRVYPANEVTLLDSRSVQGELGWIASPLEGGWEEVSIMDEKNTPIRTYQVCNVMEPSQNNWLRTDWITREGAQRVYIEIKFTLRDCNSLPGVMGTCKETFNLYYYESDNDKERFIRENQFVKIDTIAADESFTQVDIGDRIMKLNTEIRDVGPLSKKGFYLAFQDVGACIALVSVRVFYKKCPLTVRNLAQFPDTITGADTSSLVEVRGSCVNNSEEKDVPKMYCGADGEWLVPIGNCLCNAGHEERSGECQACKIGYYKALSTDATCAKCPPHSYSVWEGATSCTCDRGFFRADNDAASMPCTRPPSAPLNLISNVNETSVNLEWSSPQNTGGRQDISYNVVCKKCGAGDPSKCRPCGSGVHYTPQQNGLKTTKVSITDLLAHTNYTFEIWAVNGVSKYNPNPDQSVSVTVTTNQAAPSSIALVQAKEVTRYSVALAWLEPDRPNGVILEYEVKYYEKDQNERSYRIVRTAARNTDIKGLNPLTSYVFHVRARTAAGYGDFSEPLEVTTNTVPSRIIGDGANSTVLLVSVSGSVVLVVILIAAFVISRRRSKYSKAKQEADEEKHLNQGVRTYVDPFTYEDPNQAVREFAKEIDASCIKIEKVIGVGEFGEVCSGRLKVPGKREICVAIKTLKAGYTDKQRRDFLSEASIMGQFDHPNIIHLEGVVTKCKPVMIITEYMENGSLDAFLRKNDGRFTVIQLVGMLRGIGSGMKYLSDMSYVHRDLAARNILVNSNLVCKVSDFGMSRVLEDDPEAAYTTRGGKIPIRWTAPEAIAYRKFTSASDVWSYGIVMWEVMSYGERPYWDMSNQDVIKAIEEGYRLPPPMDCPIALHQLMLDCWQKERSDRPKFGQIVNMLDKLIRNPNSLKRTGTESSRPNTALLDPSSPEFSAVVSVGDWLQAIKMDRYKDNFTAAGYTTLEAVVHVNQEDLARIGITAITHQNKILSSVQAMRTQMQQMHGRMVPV

dTM [1]: -0.8 K
SMILES: CN(C(=O)c1cnn2cccnc12)c1cc2c(cc1N1CCOCC1)C(=O)N(C[C@@H](F)C(C)(C)O)C2

SMILES: COCC(=O)NC/C=C/c1ccc2ncnc(Nc3ccc(Oc4ccc(C)nc4)c(C)c3)c2c1 [CP-724714]
% of control [2]: 100%

% of inhibition [3]: -22%
SMILES: Cc1ccc(-c2ccc3c(ccc4sc5c(c43)NC[C@@H](C)NC5=O)n2)cn1

SMILES: Cc1cc([C@@H](C)Nc2ccccc2C(=O)O)c2nc(N3CCOCC3)cc(=O)n2c1 [AZD-6482]
% of control [4]: 100%

% of inhibition [5]: 25.4%
% of inhibition [6]: 6.96%
SMILES: CC[C@@H]1[C@H](F)C(=O)N[C@@H]1COc1nccc2cc(C(N)=O)c(OC)cc12 [ZIMLOVISERTIB]

SMILES: COc1cc(N(C)c2ccnc3ccc(C(F)(F)F)cc23)cc(OC)c1OC
Kd [7]: 6.5 µM
% binding [8]: 93%

SMILES: COc1cc(Nc2nc(C)cc(-c3cnn4nc(OC)ccc34)n2)cc(C(F)(F)F)c1
% of control (Ephrin type-A receptor 4): 100%

IC50 [9]: > 30 µM
SMILES: CCC(=O)N1CC[C@H](Nc2ncnc3c2CN(c2cnc(OC)c(C(F)(F)F)c2)CC3)C1 [LENIOLISIB]
